Values after ≈ are worked out from the molar mass of the structure shown.
Assay: Measurement of solubility in buffer at pH 6.5
Type: physicochemical
Conditions: aqueous buffer, kinetic from dmso stock; PBS buffer pH 6.5, shaken 24h at rt, LC-MSMS; read-out: Solubility of example compounds at pH 6.5
Procedure: Measurement of Solubility in Buffer at pH 6.5 2-4 mg of the test compound are dissolved in DMSO to reach a concentration of 50 g/L (solution A). To 10 μl of this solution 960 μl PBS buffer pH 6.5 are added (final concentration: 515 μg/1); the mixture is shaken for 24h at rt in a 96 well plate. An aliquot is centrifuged at 42000 rpm für 30 min. The supernatant is diluted with acetonitrile/water (8:2) 1:10 and 1:1000 resp. This diluted samples are analyzed by LC-MSMS. Calibration: 10 μl of solution A are diluted with 823 μl DMSO (final concentration: 600 μg/ml), which is further diluted with acetonitrile/water 8:2 by a factor of 100 (provides solution B). The calibration curve is obtained from solution B by further diluting with acetonitrile/water 8:2 with target concentrations of 1.2-12-60-600 ng/ml and injecting these four solutions for MS measurement. PBS-Puffer: 6.18 g sodium chloride and 3.96 g sodium dihydrogen phosphate are dissolved in 1 L aqua dist., the pH is adjusted to 6.5 with 1N sodium hydroxide. The following conditions were used for quantification: Autosampler without auto inject ahead setting, column: Waters OASIS HLB, 2,1×20 mm, 25μ, column temperature: 30° C., flow rate: 2.5 mL/min, injected volume: 2 μl, Splitter (before MS) 1:20.

Row | solubility at 24 h [µg/mL] | SMILES
1 | 3 (≈ 3.31 µM) | N#CC1(N(COC(=O)O[C@H]2CCC[C@H]2OC(=O)CCC(=O)O)C(=O)c2cc(-c3cnn(-c4c(Cl)cc(C(F)(C(F)(F)F)C(F)(F)F)cc4OC(F)(F)F)c3)ccc2Cl)CC1 (relative stereo) [Example 7, 4-({(rel 1R,2S)-2-[({[(2-chloro-5-{1-[2-chloro-4-(1,1,1,2,3,3,3-heptafluoropropan-2-yl)-6-(trifluoromethoxy)phenyl]-1H-pyrazol-4-yl}benzoyl)(1-cyanocyclopropyl)amino]methoxy}carbonyl)oxy]cyclopentyl}oxy)-4-oxobutanoic Acid]
2 | 96 (≈ 122 µM) | Cn1nc(C(F)(F)C(F)(F)F)c(C(F)(F)F)c1-n1cc(-c2ccc(Cl)c(C(=O)N(COC(=O)OCCCOC(=O)CCC(=O)O)C3(C#N)CC3)c2)cn1 [Example 26, 1-{2-Chloro-5-[2′-methyl-5′-(pentafluoroethyl)-4′-(trifluoromethyl)-2′H-[1,3′-bipyrazol]-4-yl]phenyl}-2-(1-cyanocyclopropyl)-1,5,11-trioxo-4,6,10-trioxa-2-azatetradecan-14-oic Acid]
3 | 3 (≈ 3.31 µM) | N#CC1(N(COC(=O)O[C@H]2CCC[C@@H]2OC(=O)/C=C/C(=O)O)C(=O)c2cc(-c3cnn(-c4c(Cl)cc(C(F)(C(F)(F)F)C(F)(F)F)cc4OC(F)(F)F)c3)ccc2Cl)CC1 [Example 10, (2E)-4-({(1S,2S)-2-[({[(2-chloro-5-{1-[2-chloro-4-(1,1,1,2,3,3,3-heptafluoropropan-2-yl)-6-(trifluoromethoxy)phenyl]-1H-pyrazol-4-yl}benzoyl)(1-cyanocyclopropyl)amino]methoxy}carbonyl)oxy]cyclopentyl}oxy)-4-oxobut-2-enoic Acid]
4 | 7 (≈ 7.96 µM) | N#CC1(N(COC(=O)OCCOC(=O)C2(C(=O)O)CC2)C(=O)c2cc(-c3cnn(-c4c(Cl)cc(C(F)(C(F)(F)F)C(F)(F)F)cc4OC(F)(F)F)c3)ccc2Cl)CC1 [Example 13, 1-[10-(2-Chloro-5-{1-[2-chloro-4-(1,1,1,2,3,3,3-heptafluoropropan-2-yl)-6-(trifluoromethoxy)phenyl]-1H-pyrazol-4-yl}phenyl)-9-(1-cyanocyclopropyl)-6,10-dioxo 2,5,7-trioxa-9-azadecanan-1-oyl]cyclopropane-1-carboxylic Acid]
5 | 17 (≈ 20.7 µM) | Cn1nc(C(F)(F)C(F)(F)F)c(C(F)(F)F)c1-n1cc(-c2ccc(Cl)c(C(=O)N(COC(=O)O[C@H]3CC[C@H](OC(=O)/C=C/C(=O)O)CC3)C3(C#N)CC3)c2)cn1 [Example 22, Trans (2E)-4-({-4-[({[{2-chloro-5-[2′-methyl-5′-(pentafluoroethyl)-4′-(trifluoromethyl)-2′H-[1,3′-bipyrazol]-4-yl]benzoyl}(1-cyanocyclopropyl)amino]methoxy}carbonyl)oxy]cyclohexyl}oxy)-4-oxobut-2-enoic Acid]
6 | 398 (≈ 581 µM) | Cn1nc(C(F)(F)C(F)(F)F)c(C(F)(F)F)c1-n1cc(-c2ccc(Cl)c(C(=O)N(COC(=O)OCC(=O)O)C3(C#N)CC3)c2)cn1 [Example 30, [({[{2-Chloro-5-[2′-methyl-5′-(pentafluoroethyl)-4′-(trifluoromethyl)-2′H-[1,3′-bipyrazol]-4-yl]benzoyl}(1-cyanocyclopropyl)amino]methoxy}carbonyl)oxy]acetic Acid]
7 | 3 (≈ 3.53 µM) | N#CC1(N(COC(=O)O[C@H]2CC[C@H](C(=O)O)CC2)C(=O)c2cc(-c3cnn(-c4c(Cl)cc(C(F)(C(F)(F)F)C(F)(F)F)cc4OC(F)(F)F)c3)ccc2Cl)CC1 [Example 18, Trans-4-[({[(2-chloro-5-{1-[2-chloro-4-(1,1,1,2,3,3,3-heptafluoropropan-2-yl)-6-(trifluoromethoxy)phenyl]-1H-pyrazol-4-yl}benzoyl)(1-cyanocyclopropyl)amino]methoxy}carbonyl)oxy]cyclohexane-1-carboxylic Acid]
8 | 5 (≈ 5.58 µM) | CC(C)(CC(=O)OCCOC(=O)OCN(C(=O)c1cc(-c2cnn(-c3c(Cl)cc(C(F)(C(F)(F)F)C(F)(F)F)cc3OC(F)(F)F)c2)ccc1Cl)C1(C#N)CC1)C(=O)O [Example 9, 1-(2-Chloro-5-{1-[2-chloro-4-(1,1,1,2,3,3,3-heptafluoropropan-2-yl)-6-(trifluoromethoxy)phenyl]-1H-pyrazol-4-yl}phenyl)-2-(1-cyanocyclopropyl)-12,12-dimethyl-1,5,10-trioxo-4,6,9-trioxa-2-azatridecan-13-oic Acid]
9 | 35 (≈ 43 µM) | Cn1nc(C(F)(F)C(F)(F)F)c(C(F)(F)F)c1-n1cc(-c2ccc(Cl)c(C(=O)N(COC(=O)OCC(C)(C)COC(=O)CCC(=O)O)C3(C#N)CC3)c2)cn1 [Example 29, 1-{2-Chloro-5-[2′-methyl-5′-(pentafluoroethyl)-4′-(trifluoromethyl)-2′H-[1,3′-bipyrazol]-4-yl]phenyl}-2-(1-cyanocyclopropyl)-8,8-dimethyl-1,5,11-trioxo-4,6,10-trioxa-2-azatetradecan-14-oic Acid]
10 | 4 (≈ 4.86 µM) | CC(C)(COC(=O)OCN(C(=O)c1cc(-c2cnn(-c3c(Cl)cc(C(F)(C(F)(F)F)C(F)(F)F)cc3OC(F)(F)F)c2)ccc1Cl)C1(C#N)CC1)C(=O)O [Example 41, 3-[({[(2-Chloro-5-{1-[2-chloro-4-(1,1,1,2,3,3,3-heptafluoropropan-2-yl)-6-(trifluoromethoxy)phenyl]-1H-pyrazol-4-yl}benzoyl)(1-cyanocyclopropyl)amino]methoxy}carbonyl)oxy]-2,2-dimethylpropanoic Acid]
11 | 1 (≈ 1.09 µM) | N#CC1(N(COC(=O)O[C@H]2CC[C@@H](OC(=O)CCC(=O)O)CC2)C(=O)c2cc(-c3cnn(-c4c(Cl)cc(C(F)(C(F)(F)F)C(F)(F)F)cc4OC(F)(F)F)c3)ccc2Cl)CC1 [Example 15, 4-({cis-4-[({[(2-chloro-5-{1-[2-chloro-4-(1,1,1,2,3,3,3-heptafluoropropan-2-yl)-6-(trifluoromethoxy)phenyl]-1H-pyrazol-4-yl}benzoyl)(1-cyanocyclopropyl)amino]methoxy}carbonyl)oxy]cyclohexyl}oxy)-4-oxobutanoic Acid]
12 | 2 (≈ 2.2 µM) | CC(C)(COC(=O)CCC(=O)O)COC(=O)OCN(C(=O)c1cc(-c2cnn(-c3c(Cl)cc(C(F)(C(F)(F)F)C(F)(F)F)cc3OC(F)(F)F)c2)ccc1Cl)C1(C#N)CC1 [Example 5, 1-(2-Chloro-5-{1-[2-chloro-4-(1,1,1,2,3,3,3-heptafluoropropan-2-yl)-6-(trifluoromethoxy)phenyl]-1H-pyrazol-4-yl}phenyl)-2-(1-cyanocyclopropyl)-8,8-dimethyl-1,5,11-trioxo-4,6,10-trioxa-2-azatetradecan-14-oic Acid]
13 | 50 (≈ 66.4 µM) | Cn1nc(C(F)(F)C(F)(F)F)c(C(F)(F)F)c1-n1cc(-c2ccc(Cl)c(C(=O)N(COC(=O)O[C@H]3CC[C@@H](C(=O)O)CC3)C3(C#N)CC3)c2)cn1 [Example 23, Cis-4-[({[{2-Chloro-5-[2′-methyl-5′-(pentafluoroethyl)-4′-(trifluoromethyl)-2′H-[1,3′-bipyrazol]-4-yl]benzoyl}(1-cyanocyclopropyl)amino]methoxy}carbonyl)oxy]cyclohexane-1-carboxylic Acid]
14 | 2 (≈ 2.2 µM) | N#CC1(N(COC(=O)O[C@H]2CCC[C@@H]2OC(=O)CCC(=O)O)C(=O)c2cc(-c3cnn(-c4c(Cl)cc(C(F)(C(F)(F)F)C(F)(F)F)cc4OC(F)(F)F)c3)ccc2Cl)CC1 [Example 11, 4-({(1S,2S)-2-[({[(2-chloro-5-{1-[2-chloro-4-(1,1,1,2,3,3,3-heptafluoropropan-2-yl)-6-(trifluoromethoxy)phenyl]-1H-pyrazol-4-yl}benzoyl)(1-cyanocyclopropyl)amino]methoxy}carbonyl)oxy]cyclopentyl}oxy)-4-oxobutanoic Acid]
15 | 43 (≈ 53.8 µM) | Cn1nc(C(F)(F)C(F)(F)F)c(C(F)(F)F)c1-n1cc(-c2ccc(Cl)c(C(=O)N(COC(=O)OCCOC(=O)CC(C)(C)C(=O)O)C3(C#N)CC3)c2)cn1 [Example 40, 1-{2-Chloro-5-[2′-methyl-5′-(pentafluoroethyl)-4′-(trifluoromethyl)-2′H-[1,3′-bipyrazol]-4-yl]phenyl}-2-(1-cyanocyclopropyl)-12,12-dimethyl-1,5,10-trioxo-4,6,9-trioxa-2-azatridecan-13-oic Acid]
16 | 136 (≈ 187 µM) | Cn1nc(C(F)(F)C(F)(F)F)c(C(F)(F)F)c1-n1cc(-c2ccc(Cl)c(C(=O)N(COC(=O)OCC(C)(C)C(=O)O)C3(C#N)CC3)c2)cn1 [Example 21, 3-[({[{2-Chloro-5-[2′-methyl-5′-(pentafluoroethyl)-4′-(trifluoromethyl)-2′H-[1,3′-bipyrazol]-4-yl]benzoyl}(1-cyanocyclopropyl)amino]methoxy}carbonyl)oxy]-2,2-dimethylpropanoic Acid]
17 | 76 (≈ 96.8 µM) | Cn1nc(C(F)(F)C(F)(F)F)c(C(F)(F)F)c1-n1cc(-c2ccc(Cl)c(C(=O)N(COC(=O)OCCOC(=O)CCCC(=O)O)C3(C#N)CC3)c2)cn1 [Example 28, 1-{2-Chloro-5-[2′-methyl-5′-(pentafluoroethyl)-4′-(trifluoromethyl)-2′H-[1,3′-bipyrazol]-4-yl]phenyl}-2-(1-cyanocyclopropyl)-1,5,10-trioxo-4,6,9-trioxa-2-azatetradecan-14-oic Acid]
